Assay results: the RepoRT retention time repository

Assay: HILIC, Waters ACQUITY UPLC BEH Amide, 100 × 2.1 mm, 1.7 µm; A: water + 0.125% formic acid + 10 mM ammonium formate; B: 5% water + 95% acetonitrile + 0.125% formic acid + 10 mM ammonium formate; gradient (min/%B) 0/100 2/100 7.7/70 9.5/40 10.25/30 12.75/100 17/100
Settings: stereoisomer not certain

Structure (SMILES)	LC retention time [min]
CC12CCC(=O)C=C1CCC1C2CCC2(C)C1CCC2(C)O (stereo not given) [Methyltestosterone]	1.04
CC=C1C2C=C(C)CC1(N)c1ccc(=O)[nH]c1C2 (stereo not given) [Huperzine]	5.74
CC(=O)CC(c1ccccc1)c1c(O)c2ccccc2oc1=O (stereo not given) [Warfarin]	0.99
COc1ccc2c3c1OC1C(=O)CCC4C(C2)N(C)CCC314 (stereo not given) [Hydrocodone]	3.8
CN=C(N)NCCCC(N)C(=O)O (stereo not given) [Targinine]	9.22
NCCCCC(NC(=O)C(N)CCC(=O)O)C(=O)O (stereo not given) [Glu-Lys]	9.9
CC(=O)N1CCCCCC1=O [N-Acetylcaprolactam]	2.3
Oc1cc2ccccc2[nH]1 [2-Indolinone]	1.36
CN(C)CCC=C1c2ccccc2COc2ccccc21 [Doxepin]	2.26
COC1C(O)C(CO)OC1n1cc(C)c(N)nc1=O (stereo not given) [2'-O-Methyl-5-methylcytidine]	4.93
COc1ccc2c(c1)C13CCCCC1C(C2)N(C)CC3 (stereo not given) [Dextromethorphan]	2.64
CC(=O)C1CCC2C3CCC4=CC(=O)CCC4(C)C3CCC12C (stereo not given) [Progesterone]	0.97
O=C(O)C1CC(O)CN1C(=O)C1CCCN1 (stereo not given) [Proline-hydroxyproline]	8.6
OCC1OCC(O)C(O)C1O (stereo not given) [1,5-Anhydrosorbitol]	0.92
NNCCc1ccccc1 [Phenelzine]	4.45
CN1CCCC1C(=O)O (stereo not given) [N-Methylproline]	7.11
Nc1nc(N)nc(-c2cc(Cl)ccc2Cl)n1 [Irsogladine]	1.25
COC(=O)C1=COC(OC2OC(CO)C(O)C(O)C2O)C2C(CO)=CCC12 (stereo not given) [Geniposide]	4.53
C[N+](C)(C)CCOP(=O)([O-])OCC(O)CO (stereo not given) [Glycerophosphocholine]	8.67
Nc1ncnc2c1[nH]c(=O)n2C1CC(O)C(CO)O1 (stereo not given) [8-Oxo-2-deoxyadenosine]	5.11
CC(C)=CCN1CCC2(C)c3cc(O)ccc3CC1C2C (stereo not given) [Pentazocine]	2.65
CNC(C)Cc1ccccc1 (stereo not given) [Methamphetamine]	3.33
O=P(O)(O)Oc1ccccc1 [Phenylphosphoric acid]	7.05
O=C(O)c1ccccc1C(=O)O [Phthalic acid]	1.15

Structure (SMILES)	LC retention time [min]
C[N+](C)(C)CC(O)CC(=O)[O-] (stereo not given) [Carnitine]	7.83
COC1C(O)C(CO)OC1n1cnc2c(=O)[nH]c(N)nc21 (stereo not given) [2'-O-Methylguanosine]	5.72
CCC(=O)NS(=O)(=O)c1ccc(-c2c(-c3ccccc3)noc2C)cc1 [Parecoxib]	0.98
COC(=O)CCc1ccc(OCC(O)CNC(C)C)cc1 (stereo not given) [Esmolol]	3.13
O=C1CN=C(c2ccccc2)c2cc(Cl)ccc2N1CC1CC1 [Prazepam]	1.07
NCCc1cnc[nH]1 [Histamine]	8.29
CCC1C(=O)OCC1Cc1cncn1C (stereo not given) [Pilocarpine]	2.23
CC(C)=CCNc1ncnc2nc[nH]c12 [Isopentenyladenine]	1.81
CC(=O)NC(CCC(=O)O)C(=O)O (stereo not given) [N-Acetylglutamic acid]	7.67
CCC1(O)C(=O)OCc2c1cc1n(c2=O)Cc2cc3c(CN(C)C)c(O)ccc3nc2-1 (stereo not given) [Topotecan]	5.72
CCCc1nc(C(C)(C)O)c(C(=O)O)n1Cc1ccc(-c2ccccc2-c2nn[nH]n2)cc1 [Olmesartan]	4.76
COc1cc(/C=C/C(=O)O)ccc1O [Ferulic acid]	1.36
CC(C)CC(NC(=O)C(C)N)C(=O)O (stereo not given) [Ala-Leu]	7.6
NC(CS)C(=O)O (stereo not given) [Cysteine]	5.31
OCc1cc(C(O)CNCCCCCCOCCCCc2ccccc2)ccc1O (stereo not given) [Salmeterol]	4.75
CC(=O)OCC(CCn1cnc2cnc(N)nc21)COC(C)=O [Famciclovir]	1.38
CN(CCOc1ccc(NS(C)(=O)=O)cc1)CCc1ccc(NS(C)(=O)=O)cc1 [Dofetilide]	3.38
Nc1nc2ccc(OC(F)(F)F)cc2s1 [Riluzole]	1.03
NC(Cn1cccn1)C(=O)O (stereo not given) [3-(1-Pyrazolyl)-alanine]	7.54
NC(COP(=O)(O)O)C(=O)O (stereo not given) [O-Phosphoserine]	9.85
Cc1cc(=O)oc2cc(O)ccc12 [4-Methylumbelliferone]	1.22
C=C1CC2C(CCC3(C)C(=O)CCC23)C2(C)C=CC(=O)C=C12 (stereo not given) [Exemestane]	0.98
COc1cc(OC)c(C(=O)CCCN2CCCC2)c(OC)c1 [Buflomedil]	2.34
CC(C)OC(=O)CCCC=CCC1C(O)CC(O)C1CCC(O)CCc1ccccc1 (stereo not given) [Latanoprost]	1.06

Structure (SMILES)	LC retention time [min]
Nc1ccc(C(=O)O)cc1 [4-Aminobenzoic acid]	7.49
CC(C)(C)NC(=O)C1CCC2C3CCC4NC(=O)C=CC4(C)C3CCC12C (stereo not given) [Finasteride]	1.17
O=c1c(O)c(-c2ccc(O)cc2)oc2cc(O)cc(O)c12 [Kaempferol]	1.4
O=C(O)CCc1ccccc1 [Hydrocinnamic acid]	8.71
NCCP(=O)(O)O [2-Aminoethylphosphonic acid]	9.39
O=C(O)CNC(=O)Cc1ccccc1 [Phenylacetylglycine]	2.88
NC(Cc1ccc(O)cc1)C(=O)O (stereo not given) [Tyrosine]	7.61
CC(=O)NC(Cc1ccccc1)C(=O)O (stereo not given) [N-Acetylphenylalanine]	2.61
CCOC(=O)COc1cc(-c2nn(C)c(OC(F)F)c2Cl)c(F)cc1Cl [Pyrafluefen-ethyl]	1.02
Clc1ccc(CON=C(Cn2ccnc2)c2ccc(Cl)cc2Cl)c(Cl)c1 [Oxiconazole]	1.08
CCCC=CC=O [2-Hexenal]	1.39
O=C(O)C1CSCN1 (stereo not given) [Thiazolidine-4-carboxylic acid]	6.92
CCc1c2c(nc3ccc(OC(=O)N4CCC(N5CCCCC5)CC4)cc13)-c1cc3c(c(=O)n1C2)COC(=O)C3(O)CC (stereo not given) [Irinotecan]	5.03
NC(=O)CCC(NC(=O)CCC(N)C(=O)O)C(=O)O (stereo not given) [gamma-Glutamylglutamine]	9.55
CCCNC1CCc2nc(N)sc2C1 (stereo not given) [Pramipexole]	5.7
CC(C)NCC(O)COc1ccc(COCCOC(C)C)cc1 (stereo not given) [Bisoprolol]	3.47
NC(=O)CCC(NC(=O)Cc1ccccc1)C(=O)O (stereo not given) [Phenylacetylglutamine]	6.03
CNC(CC(C)C)C(=O)O (stereo not given) [N-Methylleucine]	6.45
CCCCCCCCCCCCCCCC(=O)OC(CO)CO [2-Palmitoylglycerol]	0.99
CC(OC1C(N)C(O)OC(CO)C1O)C(=O)O (stereo not given) [Muramic acid]	8.28
CC1CC2C3CC(F)C4=CC(=O)C(Cl)=CC4(C)C3(F)C(O)CC2(C)C1(O)C(=O)CO (stereo not given) [Halometasone]	1.12
CNC(C(=O)O)C(C)C (stereo not given) [N-Methylvaline]	6.99
COc1ccc(CN2CCN(C(c3ccc(F)cc3)c3ccc(F)cc3)CC2)c(OC)c1OC [Lomerizine]	1.7
CN1C(C(=O)Nc2ccccn2)=C(O)c2ccccc2S1(=O)=O [Piroxicam]	1.02

Structure (SMILES)	LC retention time [min]
NC(CSSCC(N)C(=O)O)C(=O)O (stereo not given) [Cystine]	9.97
CCC(=O)OC(CC(=O)[O-])C[N+](C)(C)C (stereo not given) [Propionylcarnitine]	6.41
O=C1Nc2ccc(Cl)cc2C(c2ccccc2Cl)=NC1O (stereo not given) [Lorazepam]	1.33
NC(CC(=O)O)C(=O)NC(Cc1ccccc1)C(=O)O (stereo not given) [Asp-Phe]	8.14
OC1CCCCC1O (stereo not given) [1,2-Cyclohexanediol]	4.88
O=C1CN2Cc3c(ccc(Cl)c3Cl)N=C2N1 [Anagrelide]	1.82
OCCc1c[nH]c2ccc(O)cc12 [5-Hydroxytryptophol]	5.93
c1ccncc1 [Pyridine]	6.63
CCOC(=O)OC1(C(=O)OCCl)CCC2C3CCC4=CC(=O)C=CC4(C)C3C(O)CC21C (stereo not given) [Loteprednol Etabonate]	0.97
Cn1cnc(C[C@H](N)C(=O)O)c1 [1-Methyl-L-histidine]	9.1
CCOC(=O)c1ncn2c1CN(C)C(=O)c1cc(F)ccc1-2 [Flumazenil]	1.08
CC(C)(O)CC(=O)O [beta-Hydroxyisovaleric acid]	4.55
NC(=O)NC(CCC(=O)O)C(=O)O (stereo not given) [Ureidoglutaric acid]	7.8
O=C(O)c1cccnc1 [Nicotinic acid]	4.01
Cn1c(=N)ccn(C2OC(CO)C(O)C2O)c1=O (stereo not given) [3-Methylcytidine]	6.99
O=C(O)CCC(=O)O [Succinic acid]	4.46
CN[C@@H](CCCCN)C(=O)O [N.alpha.-Methyl-L-lysine]	7.35
Cc1ncc(CO)c(C=O)c1O [Pyridoxal]	2.18
NC(=O)c1ccccc1 [Benzamide]	1.27
CC(=O)N1CCN(c2ccc(OCC3COC(Cn4ccnc4)(c4ccc(Cl)cc4Cl)O3)cc2)CC1 (stereo not given) [Ketoconazole]	1.73
CN1CCCC(n2nc(Cc3ccc(Cl)cc3)c3ccccc3c2=O)CC1 (stereo not given) [Azelastine]	2.95
Cc1ncc([N+](=O)[O-])n1CC(O)CCl (stereo not given) [Ornidazole]	1.08
COC(=O)C1=C(C)NC(C)=C(C(=O)OC2CCCN(Cc3ccccc3)C2)C1c1cccc([N+](=O)[O-])c1 (stereo not given) [Benidipine]	1.46
